{"source": "ChEMBL document CHEMBL2073942", "about": "“Localization of organic anion transport protein 2 in the apical region of rat retinal pigment epithelium” (Invest Ophthalmol Vis Sci, 2002)", "molecular_target": "T1, Solute carrier organic anion transporter family member 1A4 (Rattus norvegicus, UniProt O35913)", "T1 sequence (O35913 whole entry)": "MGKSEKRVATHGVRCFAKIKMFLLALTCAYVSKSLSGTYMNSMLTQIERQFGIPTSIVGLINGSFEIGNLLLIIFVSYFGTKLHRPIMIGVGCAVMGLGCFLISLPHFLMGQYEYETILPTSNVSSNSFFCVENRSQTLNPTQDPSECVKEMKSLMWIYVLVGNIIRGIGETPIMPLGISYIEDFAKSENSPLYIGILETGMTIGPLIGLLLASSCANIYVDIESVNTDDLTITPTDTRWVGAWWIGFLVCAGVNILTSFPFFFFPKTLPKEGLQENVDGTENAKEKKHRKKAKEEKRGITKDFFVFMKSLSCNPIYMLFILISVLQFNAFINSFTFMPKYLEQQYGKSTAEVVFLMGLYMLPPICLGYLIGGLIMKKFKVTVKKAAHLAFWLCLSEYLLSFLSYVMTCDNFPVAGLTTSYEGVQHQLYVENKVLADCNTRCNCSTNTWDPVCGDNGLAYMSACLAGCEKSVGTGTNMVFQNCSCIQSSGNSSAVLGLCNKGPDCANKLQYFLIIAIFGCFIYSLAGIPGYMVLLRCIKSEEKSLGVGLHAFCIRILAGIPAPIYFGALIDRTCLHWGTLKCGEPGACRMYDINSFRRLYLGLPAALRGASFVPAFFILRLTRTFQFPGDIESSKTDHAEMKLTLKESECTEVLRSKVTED", "assay": "TP_TRANSPORTER: inhibition of Digoxin uptake in Xenopus laevis oocytes", "assay_type": "functional, cell-based, Oocyte", "data": [{"smiles": "CC1=C(/C=C/C(C)=C/C=C/C(C)=C/c2cc(/C=C/C=C(C)/C=C/C3=C(C)CCCC3(C)C)cc[n+]2CCO)C(C)(C)CCC1", "values": [{"measurement": "Ki", "value": 37, "unit": "µM"}]}]}
